Test results from PubChem BioAssay (NCI).
Several values for one entry are separate records, joined by “and”; a condition that tells them apart may be missing. Equal entries are not always repeated.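 All cell lines were grown in 96-well plates and treated with compound for 48 hours. GI50 = concentration required for 50% inhibition of growth. TGI: concentration producing complete growth inhibition.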

Columns and labels:
Assay in all cases: NCI tumour cell line growth inhibition, 48 h
SK-OV-3 ovarian = tested on: SK-OV-3 ovarian
SF-268 CNS = tested on: SF-268 CNS
UACC-62 melanoma = tested on: UACC-62 melanoma
TK-10 renal = tested on: TK-10 renal
RPMI-8226 leukemia = tested on: RPMI-8226 leukemia
HOP-92 NSCLC = tested on: HOP-92 NSCLC
MALME-3M melanoma = tested on: MALME-3M melanoma
786-0 renal = tested on: 786-0 renal
OVCAR-4 ovarian = tested on: OVCAR-4 ovarian
HCC-2998 colon = tested on: HCC-2998 colon

SMILES | GI50 (SK-OV-3 ovarian) | TGI (SK-OV-3 ovarian) | GI50 (SF-268 CNS) | TGI (SF-268 CNS) | GI50 (UACC-62 melanoma) | TGI (UACC-62 melanoma) | GI50 (TK-10 renal) | TGI (TK-10 renal) | GI50 (RPMI-8226 leukemia) | TGI (RPMI-8226 leukemia) | GI50 (HOP-92 NSCLC) | TGI (HOP-92 NSCLC) | GI50 (MALME-3M melanoma) | TGI (MALME-3M melanoma) | GI50 (786-0 renal) | TGI (786-0 renal) | GI50 (OVCAR-4 ovarian) | TGI (OVCAR-4 ovarian) | GI50 (HCC-2998 colon) | TGI (HCC-2998 colon)
Cn1c(NCC(CN2CCCC2)OC(=O)c2ccccc2)cc(=O)n(C)c1=O (stereo unspecified) | > 100 µM | > 100 µM | > 100 µM | > 100 µM | > 100 µM | > 100 µM | > 100 µM | > 100 µM | > 100 µM | > 100 µM | > 100 µM | > 100 µM | 8.69 µM | 40.8 µM | > 100 µM | > 100 µM | > 100 µM | > 100 µM | > 100 µM | > 100 µM
COc1cc(/C=C/C(=O)c2c(C)nc3ccccc3c2C)ccc1OCCCCOc1cc2c(cc1OC)C(=O)N1CCC[C@H]1C=N2 | 1.18 µM | 3.08 µM | 0.277 µM | 1.04 µM | 0.6 µM | 2.02 µM | 0.403 µM | 3.2 µM | 0.209 µM | 0.585 µM | 0.19 µM | 0.632 µM | 0.554 µM | 2.37 µM | 0.602 µM | 1.86 µM | 0.47 µM | 4.62 µM | 0.519 µM | 1.16 µM
NS(=O)(=O)c1ccc(N=C2C(=O)Nc3ccccc32)cc1 |  | > 100 µM |  | > 100 µM |  | > 100 µM |  | > 100 µM |  | > 100 µM |  | > 100 µM |  | > 100 µM |  | > 100 µM |  | > 100 µM |  | > 100 µM
C=C1C(=O)OC2CC1C(OC(C)=O)C/C(C)=C/CC/C(C)=C\CCC2(C)O (stereo unspecified) |  | 61.7 µM and 46.6 µM |  | 22.9 µM and 20.3 µM | 11.3 µM and 2.89 µM | 26.1 µM and 12.9 µM |  | 12.4 µM and 16.1 µM |  | 7.9 µM and 7.55 µM |  | 13.2 µM and 9.51 µM |  | 15 µM |  | 10.5 µM and 19.9 µM |  | 21 µM and 19.2 µM |  | 17.5 µM and 21.1 µM
O=C(Cc1ccccc1)N/N=C(/c1nc2ccc([N+](=O)[O-])cc2[nH]c1=O)C(O)c1ccccc1Cl (stereo unspecified) |  | > 100 µM |  | > 100 µM |  | > 100 µM |  | > 100 µM |  | > 100 µM |  | > 100 µM |  | > 100 µM |  | > 100 µM |  | > 100 µM |  | > 100 µM
O=C1NC(=O)C2C1C1C=C3c4ccccc4N(c4ccccc4)C32[C@H]2C(=O)NC(=O)[C@@H]12 (stereo partly specified) |  | > 100 µM |  | > 100 µM |  | > 100 µM |  | > 100 µM |  | > 100 µM |  | > 100 µM |  | > 100 µM |  | > 100 µM |  | > 100 µM |  | > 100 µM
CCc1nc2ccccc2c(=O)n1/N=C(\N=Nc1ccc(Cl)cc1)c1ccccc1 |  | 62 µM |  | 95.3 µM |  | > 100 µM |  | 78.3 µM |  | > 100 µM |  | 46.2 µM |  | 90 µM |  | 59.2 µM |  | 75.6 µM |  | 95.6 µM
CS(=N)(=O)CCC(N)P(=O)(O)O (stereo unspecified) |  | > 100 µM |  | > 100 µM |  | > 100 µM |  | > 100 µM |  | > 100 µM |  | > 100 µM |  | > 100 µM |  | > 100 µM |  | > 100 µM |  | > 100 µM
O=C(Cc1ccc(Nc2ccnc(C(F)(F)F)c2)cc1)N/N=C/c1ccccc1O | 3.13 µM | > 68.5 µM | 2.17 µM | > 73.8 µM | 2.17 µM | 21.5 µM | 4.43 µM | > 45.3 µM | 0.824 µM | 16.2 µM | 1.97 µM | 21 µM | 4.07 µM | > 38.4 µM | 3.59 µM | > 62.7 µM | 3.29 µM | > 100 µM | 1.16 µM | 10.8 µM
